Data as given in patent US9950074B2, “Composition and delivery vehicle for active agents and methods therefor” (Georg-August-Universität Göttingen Stiftung Öffenlichen …, priority 2012, dated 2018).

Legend:
[1] = system: Z310 cells stably expressing FRα; assay: [3H]5MTHF uptake with transporter inhibitors; type: cell-based, rat; details: 12.5 nM [3H]5MTHF, 1 hour at 37° C.
Protocol: Z310 cells stably expressing FRα were incubated with 12.5 nM [^3H]5MTHF alone or together with TC, MTX, PAH, probenecid and digoxin for 1 hour at 37° C. Subsequently, cells were lysed and intracellular radioactivity was measured.
We performed additional experiments to evaluate FRα-independent transport processes in Z310 cells at physiological MTHF concentration (12.5 nM). A couple of organic anion transporters are known to be expressed in Z310 cells (Halwachs et al., 2011). […] At this concentration MTX is known to block FR-mediated MTHF binding as well.

[2] = system: Z310 cells stably transfected with FRα; assay: apical release (shedding) of [3H]5MTHF from filter-grown Z310 cells; type: cell-based; details: FRα-transfected Z310 cells loaded 1 h with [3H]5MTHF; 7 μM monensin or 0.5 mg/ml rat transferrin
Protocol: After three washing steps, cells were incubated with fresh RPMI medium containing either 7 μM monensin (Mon) or 0.5 mg/ml rat transferrin (Trans) or contained no supplementation. Samples from the apical and basolateral compartment were removed at the indicated time points. Subsequently, cells were lysed and radioactivity was measured in medium samples and cell lysates. Data are means±s.e.m. of three independent experiments.
For 5MTHF uptake and transport measurements in Z310 cells, 4.2*104 cells were seeded in laminin coated transwell culture plates (0.3 cm2 growth area, 0.4 μm pore size) in folate-free RPMI medium. To test the barrier function, dye permeability assays with lucifer yellow were performed. Cells were used for experiments when the permeability was below 1% per hour. […] Radioactivity in medium samples and cell lysates was measured in a liquid scintillation spectrometer.
FRα-transfected or vector-transfected Z310 cells were grown in a two chamber transwell system and [^3H]5MTHF was either given into the basolateral or apical compartment. After a 1 h incubation with [^3H]5MTHF the medium was replaced by fresh medium and the time-dependent emergence of [^3H]5MTHF in both compartments was detected.

[3] = system: primary porcine choroid plexus epithelial cells (PCPEC); assay: apical transport of 5MTHF in primary PCPECs; type: cell-based; details: PCPEC loaded with 25 nM [3H]5MTHF for 24 hours; 7 μM monensin
Protocol: Filter-grown PCPECs were loaded with 25 nM [^3H]5MTHF for 24 hours. Cells were then incubated with 7 μM monensin or left untreated. Radioactivity from medium samples was measured at the indicated time points. […] Data are means±s.e.m. of two independent experiments, each done in triplicate.
Porcine choroid plexus epithelial cells (PCPECs) were prepared basically as described previously (Hakvoort et al., 1998: J Neurochem 71, 1141-1150). Isolated PCPECs were seeded in laminin-coated transwell culture plates (0.4 μm pore size, Costar, Cambridge, Mass.) with a diameter of 12 mm using a seeding density of 20 mg wet tissue/cm2. The cell culture medium (DMEM-Ham's F-12, Biochrom, Berlin, Germany) was supplemented with 10% fetal calf serum, 4 mM glutamine, 5 μg/ml insulin, 100 U/mL penicillin and 100 μg/mL streptomycin. Cytosine arabinoside (20 μM) was added to suppress the growth of contaminating cells. After reaching confluence at days in vitro (DIV) 8, growth medium was replaced by serum-free culture medium (SFM) to support cell differentiation and improve barrier function. At DIV 10, the medium was replaced by folate-free RPMI medium (Invitrogen) without serum.
Filter-grown PCPEC were loaded with 25 nM [^3H]5MTHF for 24 hours. Subsequently, medium was changed and cells were treated with 7 μM monensin or left untreated.

[4] = system: primary rat choroids plexus epithelial cells; details: read-out: Km of FRα-dependent uptake; low extracellular folate concentrations; cited from earlier work
[5] = target: reduced folate carrier (RFC, SLC19A1) (Homo sapiens, UniProt P41440); details: read-out: influx Km of the RFC; cited from earlier work
[6] = system: primary mixed cortical cultures; assay: internalization assay in primary mixed cortical cultures; type: cell-based, neonatal mice; details: 2 hours at 37° C.
Protocol: Disassociated neonatal cortices from postnatal day 0-2 mice were cultured in DMEM supplemented with 10% fetal calf serum, 1% GlutaMAX (Invitrogen), 100 U/mL penicillin and 100 μg/mL streptomycin on laminin- and poly-L-lysin-coated coverslips at 37° C. in 5% CO2. Medium was changed every 3-4 days. At DIV 7-14, mixed cortical cultures consisting of oligodendrocytes, cortical neurons and microglia on an astrocyte monolayer were obtained.
Mixed cortical cultures were obtained form neonatal mice and immediately plated on coverslips and incubated in the respective growth medium. Before the internalization assay, exosomes were purified from Z310 cells, stably transfected with FRα or vector and labelled with PKH26 and FA-FITC as described above. The uptake was performed by incubating the cell cultures with exosome dilutions for 2 hours at 37° C. and 5% CO2. Cells were then fixed, permeabilized and stained with the respective antibodies for immunofluorescence analysis.
We have unexpectedly disclosed FRα as exosomal cargo in the CSF. To further understand the biological function of this transport mechanism we injected exosomes derived from FRα-transfected or vector-transfected Z310 cells into the lateral ventricle of C57BL/6 mice. […] After incubating the cells for 2 hours at 37° C., cells were fixed and analyzed by immunofluorescence microscopy.

Sequence of reduced folate carrier (RFC, SLC19A1) (P41440 whole entry): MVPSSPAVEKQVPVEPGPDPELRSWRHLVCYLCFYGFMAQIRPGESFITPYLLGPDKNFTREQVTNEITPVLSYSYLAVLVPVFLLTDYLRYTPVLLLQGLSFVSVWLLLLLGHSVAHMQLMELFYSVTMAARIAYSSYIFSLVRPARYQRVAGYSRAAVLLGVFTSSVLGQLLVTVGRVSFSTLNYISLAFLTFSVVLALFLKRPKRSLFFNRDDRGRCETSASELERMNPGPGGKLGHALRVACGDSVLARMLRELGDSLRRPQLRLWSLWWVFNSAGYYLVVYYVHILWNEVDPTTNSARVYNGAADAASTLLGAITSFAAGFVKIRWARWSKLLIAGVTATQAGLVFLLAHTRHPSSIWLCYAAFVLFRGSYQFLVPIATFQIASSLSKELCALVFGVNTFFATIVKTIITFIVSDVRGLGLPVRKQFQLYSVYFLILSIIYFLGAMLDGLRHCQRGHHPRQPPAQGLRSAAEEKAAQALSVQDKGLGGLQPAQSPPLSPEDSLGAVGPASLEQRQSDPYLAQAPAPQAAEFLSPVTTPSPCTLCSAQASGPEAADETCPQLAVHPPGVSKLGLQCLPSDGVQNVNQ

Nc1ccc(C(=O)NCC(=O)O)cc1 [p-aminohippuric acid]
effect on uptake of [3H]5MTHF [1]: none of the inhibitors reduced the uptake

CC[C@@]1([C@@H]2O[C@@H]([C@H]3O[C@@](O)(CO)[C@H](C)C[C@@H]3C)C[C@@H]2C)CC[C@H]([C@]2(C)CC[C@]3(C[C@H](O)[C@@H](C)[C@@H]([C@@H](C)[C@@H](OC)[C@H](C)C(=O)O)O3)O2)O1 [monensin]
increase of apical shedding of [3H]5MTHF [2]: 70%
enhancement of apical accumulation of [3H]5MTHF [3]: 33%

CN1c2c(nc(N)[nH]c2=O)NCC1CNc1ccc(C(=O)N[C@@H](CCC(=O)O)C(=O)O)cc1 (some centres unmarked) [5MTHF, 5-methyltetrahydrofolate]
Km [4]: ~0.0095 µM
Km [5]: 2 to 7 µM

CN(Cc1cnc2nc(N)nc(N)c2n1)c1ccc(C(=O)N[C@@H](CCC(=O)O)C(=O)O)cc1 [MTX, methotrexate]
effect on uptake of [3H]5MTHF ([1]; inhibitor at 10 μM): significantly reduced 5MTHF uptake

CCCN(CCC)S(=O)(=O)c1ccc(C(=O)O)cc1 [probenecid]
effect on uptake of [3H]5MTHF [1]: none of the inhibitors reduced the uptake

C[C@H]1O[C@@H](O[C@H]2[C@@H](O)C[C@H](O[C@H]3[C@@H](O)C[C@H](O[C@H]4CC[C@@]5(C)[C@H](CC[C@@H]6[C@@H]5C[C@@H](O)[C@]5(C)[C@@H](C7=CC(=O)OC7)CC[C@]65O)C4)O[C@@H]3C)O[C@@H]2C)C[C@H](O)[C@@H]1O [digoxin]
effect on uptake of [3H]5MTHF [1]: none of the inhibitors reduced the uptake

Folic acid conjugated to fluorescein isothiocyanate [FA-FITC]
delivery of FA-FITC to cells ([6]; combined with FRα-positive exosomes): delivered to astrocytes
internalization of FA-FITC by cells ([6]; free FA-FITC without exosomes): none of the cell types internalized free FA-FITC

B1: transferrin: rat transferrin (Rockland), known to induce exosome release from cells (protein, UniProt P12346 20-698, looked up)
Serotransferrin: VPDKTVKWCAVSEHENTKCISFRDHMKTVLPADGPRLACVKKTSYQDCIKAISGGEADAITLDGGWVYDAGLTPNNLKPVAAEFYGSLEHPQTHYLAVAVVKKGTDFQLNQLQGKKSCHTGLGRSAGWIIPIGLLFCNLPEPRKPLEKAVASFFSGSCVPCADPVAFPQLCQLCPGCGCSPTQPFFGYVGAFKCLRDGGGDVAFVKHTTIFEVLPQKADRDQYELLCLDNTRKPVDQYEDCYLARIPSHAVVARNGDGKEDLIWEILKVAQEHFGKGKSKDFQLFGSPLGKDLLFKDSAFGLLRVPPRMDYRLYLGHSYVTAIRNQREGVCPEGSIDSAPVKWCALSHQERAKCDEWSVSSNGQIECESAESTEDCIDKIVNGEADAMSLDGGHAYIAGQCGLVPVMAENYDISSCTNPQSDVFPKGYYAVAVVKASDSSINWNNLKGKKSCHTGVDRTAGWNIPMGLLFSRINHCKFDEFFSQGCAPGYKKNSTLCDLCIGPAKCAPNNREGYNGYTGAFQCLVEKGDVAFVKHQTVLENTNGKNTAAWAKDLKQEDFQLLCPDGTKKPVTEFATCHLAQAPNHVVVSRKEKAARVSTVLTAQKDLFWKGDKDCTGNFCLFRSSTKDLLFRDDTKCLTKLPEGTTYEEYLGAEYLQAVGNIRKCSTSRLLEACTFHKS
increase of apical shedding of [3H]5MTHF [2]: 36%
